Consider 1 molecule from patent US6664241B2, “Water-soluble amide derivatives of polyene macrolides and preparation and uses thereof” (Micrologix Biotech Inc., priority 2000, dated 2003).

The structures appear in SMILES notation. Values after ≈ are worked out from the molar mass of the structure shown.

For series [1], the system named is C. albicans. The series is described as follows: 7 day kidney bioburden evaluation in neutropenic mice challenged with C. albicans. In kind it is in vivo, Swiss-Webster mice. The settings on record: Candida albicans, ip, 168 h, intraperitoneally once daily for 7 days, 50% of animals with 2 log10 reduction in kidney CFU. The method, then: (§1) A variety of the compounds synthesized as described in Section 5, supra, were tested in various in vivo assays, as described below. The results of the various assays are provided in TABLE 3, presented at the end of this section. In all of the in vivo assays described, the test compounds, in the form of the aspartate salts, were formulated in an aqueous vehicle (5% mannitol in sterile water; OSMITROL, Baxter Healthcare, Deerfield, Ill.), followed by appropriate dilutions. The formulations were prepared fresh before dosing.
(§2) AmB and AME were also tested for comparison. For AmB, the commercially available FUNGIZONE (Bristol-Meyers Squibb Co.) was used. Reported values are based upon the weight of the AmB active ingredient, not on the basis of the weight of the FUNGIZONE powder. AME was formulated in OSMITROL as described for the test compounds.
Various polyene macrolide amide derivatives of the invention were evaluated for their protective effect when administered intraperitoneally once daily for 7 days to neutropenic mice challenged with live C. albicans.
Swiss-Webster mice (Simonsen Laboratories, Gilroy, Calif.) were made neutropenic by intravenous administration of 5-fluorouracil (150 mg/kg) on study day −1. On study day 0, all mice received by intravenous injection a single inoculum (0.2 mL) containing as estimated 5.0×10^4 CFU of C. albicans. The day of inoculation was designated as study day 0. Beginning the day after infection (on study day 1), mice were treated intraperitoneally with vehicle alone or formulated test compound, once daily for 7 consecutive days.
(§3) The mice were observed daily from study day 1 through study day 8 (1 day after the last dose). Mice found dead or euthanized in extremis were removed from the study without further processing. Surviving mice were euthanized by inhalation of CO2 on study day 8 and both kidneys from each mouse were removed. Each pair of removed kidneys was homogenized in 3 mL of ice-cold PBS containing 10% glycerol. A portion of each homogenate was used to determine log10 CFU per kidney using SDA plates (48 hours of incubation at 30° C.). Kidney log10 CFU data were analyzed using a t-test. The criterion for a statistically significant response was set at p<0.01.
(§4) For comparison, the results for AmB and AME are also provided. Efficacy was defined for individual animals as a greater than 2 log10 reduction in kidney CFU relative to the mean vehicle control value.

The subject of series [2] is C. albicans. The series is described as follows: 5 day kidney bioburden evaluation in immunocompetent mice challenged with C. albicans. The series is classed as in vivo, Swiss-Webster mice. The settings on record: for effective in % of mice: greater than 2 log10 reduction in kidney CFU. The method, then:
as §1, §2
Various polyene macrolide amide derivatives of the invention were evaluated for their protective effect when administered intraperitoneally once daily for 5 days to immunocompetent mice challenged with live C. albicans.
C. albicans was grown on Sabouraud dextrose agar (SDA) plates for 48 hr. Colonies were harvested and washed twice by centrifugation in phosphate-buffered saline (PBS). The washed pellets were resuspended in PBS and diluted to achieve the desired number of fungi per milliliter. A portion of the inoculum was plated on SDA plates to determine the colony-forming units (CFU) per milliliter.
Swiss-Webster mice (Simonsen Laboratories, Gilroy, Calif.) were administered by intravenous injection a single inoculum (0.2 mL) containing as estimated 2.0×10^5 CFU of C. albicans. The day of inoculation was designated as study day 0. Beginning three days after injection, mice were treated intraperitoneally with vehicle alone or formulated test compound once daily for 5 consecutive days.
as §3, with “day 0” for “day 1”, “day 10 (3 days” for “day 8 (1 day”, “day 10” for “day 8”
as §4

Series [3] is described as follows: Ascending single-dose nephrotoxicity study in rabbits. In kind it is in vivo, Female New Zealand white rabbits. Conditions: female, New Zealand white, rabbit, in vivo, ascending single intravenous infusion doses, urine volume, BUN, creatinine, read-out: NOAEL acute rabbit. How it is done:
as §1
AmB and AME were also tested for comparison. For AmB, the commercially available FUNGIZONE (Bristol-Meyers Squibb Co.) was used. […]
Various polyene macrolide amide derivatives of the invention were evaluated to determine the intravenous dose of administered compound that produces nephrotoxicity in rabbits. Nephrotoxicity was monitored by measuring urine volume and blood urine nitrogen (BUN) and creatinine. […]
Ascending single doses were administered by intravenous infusion into an ear vein at a rate of 0.6 mL/min. […] Body weights were recorded before each dose, as well as 2 days after the last dose. Blood samples were collected from the rabbits two days prior to the first dose (study day −2) and approximately 24 hr after each dose and analyzed for BUN and creatinine. […]

For series [4], the system named is C. albicans. Kind of series: Minimum Inhibitory Concentrations (MICs) against C. albicans, NCCLS M27-A broth dilution. In kind it is cell-based. The settings on record: Candida albicans, read-out: MIC. How it is done: For each compound synthesized, Minimum Inhibitory Concentrations (MICs) against C. albicans were determined as described in Reference Method for Broth Dilution Antifungal Susceptibility Testing of Yeasts, Approved Standard, NCCLS document M27-A (ISBN 1-56238-328-0), NCCLS, 940 West Valley Road, Suite 1400, Wayne, Pa. 19087, 1997.

In the case of `C[C@@H]1[C@H](O)[C@@H](C)/C=C/C=C/C=C/C=C/C=C/C=C/C=C/[C@H](O[C@@H]2O[C@H](C)[C@@H](O)[C@H](N)[C@@H]2O)C[C@@H]2O[C@](O)(C[C@@H](O)C[C@@H](O)[C@H](O)CC[C@@H](O)C[C@@H](O)CC(=O)O[C@H]1C)C[C@H](O)[C@H]2C(=O)O` [AMB, amphotericin B, reference compound], the ED50 with C. albicans [1] is 0.3 mg/kg; with C. albicans [2] (Candida albicans, ip, 120 h, intraperitoneally once daily for 5 days, immunocompetent mice, C. albicans, 50% of animals with 2 log10 reduction in kidney CFU, read-out: ED50 mice 5 day) it was 3 mg/kg; in the series on C. albicans [2] (intraperitoneally, 5 day kidney bioburden model, calculated), 3 mg/kg/day. The “effective in % of mice” value in the series with C. albicans [2] (2 mg/kg/day intraperitoneally) is given as 20%; with C. albicans [2] (4 mg/kg/day intraperitoneally) it was 60%; in the series with C. albicans [2] (8 mg/kg/day intraperitoneally) it was 100%; in the series on C. albicans [2] (16 mg/kg/day intraperitoneally) it was 78%. The NOAEL in series [3] was determined as 0.375 mg/kg. In the series with C. albicans [4], the MIC is 0.125 to 0.25 µg/mL (≈ 0.135 to 0.271 µM).
